In patent US20030138429A1, “Compositions and methods for inhibiting metastasis” (priority 2001, published 2003):
Entries after “also recorded” stand apart in the source; their conditions may differ.

What was measured:
[1] = system: 1-LN human prostate tumor cells; assay: Binding of 125I-labeled Pg 2 glycoforms to 1-LN cells; conditions: for BINDING +6-AHA: binding to surface of 1-LN cells in presence of 6-AHA; for BINDING +6-AHA / BINDING +L-lactose: Yes/No; for BINDING +L-lactose: binding to surface of 1-LN cells in presence of L-lactose; for Binding to 1-LN cells: in words; for Bound (Molecules × 10^5/cell): maximal binding, mean ± SD
Experimental: Ligand Binding Analysis—Cells were grown in tissue culture plates until the monolayers were confluent. Prior to use in binding assays, the cells were washed in HBSS. All binding assays were performed at 4° C. in RPMI 1640 containing 2% bovine serum ablumin (BSA). Increasing concentrations of ^125I-labeled Pg 2 glycoforms were incubated with cells for 60 min in 48-well or 96-well culture plates, respectively. Free ligand was separated from bound by aspirating the incubation mixture by and washing the cell monolayers rapidly three times with RPMI 1640 containing 2% BSA. The cells were then lyzed with 0.1 M NaOH, and bound radioactivity was determined in a Pharmacia LKB Biotechnology 1272-gamma counter. Molecules of ligand bound were calculated after substraction of non-specific binding measured in the presence of nonlabeled 100 μM Pg 2. Estimates for dissociation constant (Kd) values and maximal binding of Pg 2 glycoforms (Bmax) were determined by fitting data directly to the Langmuir isotherm using the statistical program SYStat® for Windows.
Binding of Single Pg 2 Glycoforms to 1-LN Human Prostate Tumor Cells—Binding of ^125I-labeled single Pg 2 glycoforms to 1-LN cells was determined as described under Experimental Procedures. Native Pg 2 has six glycoforms which differ in their sialic acid content.
In order to assess the binding mechanism of the individual Pg 2 glycoforms to 1-LN cells, we studied their activation by cells incubated with each glycoform in the presence of 6-aminohexanoic acid (6-AHA) and L-lactose. The antifibrinolytic amino acid 6-AHA prevents interaction of Pg L-lysine binding sites with several cell membrane-associated components. L-lactose is a sugar which intereferes with binding of Neu 5-AC (α2-3) or (α2-6) residues to sialic acid binding proteins and inhibits binding of Native Pg 2 to DPP IV on the surface of rheumatoid synovial fibroblasts.

1-LN cells [2] = assay: [Ca2+]i response of 1-LN cells (Fura-2/AM digital imaging microscopy); assay type: cell-based, human; conditions: for [Ca^2+]i Increase: Yes/No; for [Ca2+]i response after binding of glycoform: glycoform 0.1 μM, in words
Experimental: Measurement of Intracellular Calcium Levels—Cystolic free calcium [Ca^2+]i, was measured by Digital Imaging Microscopy (DIM) using the fluorescent indicator Fura-2/AM as previously described.
[Ca^2+]i Response to Pg 2 Glycoforms Binding on the Surface of 1-LN Cells—We measured changes in [Ca^2+]i after binding of each individual Pg 2 glycoform to the surface of 1-LN cells. […] Similarly, cells were incubated at 37° C. for 1 h with anti-u-PA or anti-p IgGs (100 μg/ml) which inhibit enzymatic activity prior to addition of the highly sialylated glycoforms (Pgs 2γ, 2δ, and 2ε).

1-LN cells [3] = assay: MMP-9 activity in serum-free culture medium of 1-LN cells (quantitative gelatin zymography); assay type: cell-based, human; conditions: for Active MMP-9: 24 h; for MMP-9 EXPRESSION Secretion: Yes/No
Experimental: Gelatin Zymography—Protein samples were electrophoresed on gelatin-containing 0.75 mm thick 10% polyacrylamide gels in the presence of SDS under nonreducing conditions. After completion of the electrophoretic run, the gels were incubated with two changes of 2.5% Triton X-100 for 1 h, followed by incubation for 18 h at 37° C. in 0.1 M glycine-NaOH, pH 8.3, containing 1 mM CaCl2, and […], before staining with Coomassie Brilliant Blue R-250 to visualize the lysis bands.
MMP-9 Activity in Solution—MMP-9 activity was measured in tissue culture supernatants by quantitative zymography using as a standard MMP-9 purified by affinity chromatography on gelatin-Sepharose from 1-LN cell conditioned medium (10 liters). Conditioned medium (50 μl), from 1-LN cell monolayers in 48 well culture plates (1.7×10^6 cells/well) incubated with Pg 2 glycoforms and/or inhibitors of Pg binding or activation, were electrophoresed on gelatin-containing gels and the degree of lysis was quantified using a Gelman ACD-15 Automatic Computing Densitometer (Gelman Instrument Company, Ann Arbor, Mich.). Values were determined by integrating the density of the selected bands and expressed in units×mm^2. Each gel was scanned three times and the average value of the integrated density of the bands was used to determine levels of MMP-9 from calibration curves constructed with purified active MMP-9 electrophoresed under the same conditions. The statistical analysis of the data was performed on an IBM 433 DX/S computer using the program SYSTAT® for Windows 95. The statistical significance of differences between means was evaluated by Student's t-test. MMP-9 was positively identified in conditioned medium by electrophoretic separation in 10% SDS-polyacrylamide gels (SDS-PAGE), electroblot of the electrophoresed proteins to nitrocellulose membranes and reaction with an anti-MMP-9 mAb (1 μg/ml) followed by reaction with a secondary alkaline phosphatase conjugated anti-mouse IgG. Detection was performed by reaction with the alkaline phosphatase substrate 5-bromo-4-chloro-3-indolyl phosphate in the presence of nitroblue tetrazolium (1 mM each) in 10 mM Tris-HCl, pH 8.5.
Effect of Pg on the Expression of MMP-9 by 1-LN Cells—Cells were seeded into 48-well culture plates and grown in RPMI 1640 containing 10% fetal bovine serum. Confluent monolayers were then incubated for 24 h with quiescent culture medium containing RPMI 1640 and 0.5% fetal bovine serum. Each individual Pg 2 glycoform (0.1 μM) was added in triplicate to cell monolayers in 300 μl of serum-free RPMI 1640 and incubated for 24 h at 37° C. Culture medium was collected to measure secretion of MMP-9 as described under Experimental Procedures. Prior to analyses of the MMP-9 secreted into the medium by 1-LN cells in the presence of individual Pg 2 glycoforms, we purified MMP-9 from conditioned medium (5 liters) by the technique of Masure et al.. […] A similar analysis of the Mr˜95,000 protein yielded the sequence APRQRQ, corresponding to the amino-terminal sequence of proMMP-9. […] We then proceeded to analyze the MMP-9 secreted into the medium by 1-LN cells incubated with each individual Pg 2 glycoform in serum-free culture medium, using the purified MMP-9 as a standard for quantification by gelatin zymography. These analyses (FIG. 7A) show a major band of active protein with a Mr˜85,000. […] Samples of these conditioned media were also subjected to SDS-PAGE under reducing conditions, electroblotted to nitrocellulose membranes and then reacted with an anti-MMP-9 mAb (FIG. 7B). […] A 4-fold decrease in the production of MMP-9 by cells co-incubated with anti-DPP IV mAb 236.3 and Pg 2ε (p<0.001) (Table II) is clearly observed in the conditioned medium (Lane 6 on FIGS. 8A and 8B, respectively).

[4] = 125I-labeled glycoform, 1-LN cell monolayers, serum-free RPMI 1640, mean ± SD
[5] = 125I-labeled glycoform, 1-LN cell monolayers
[6] = SFM + 6-AHA (100 nM) + glycoform 0.1 μM
[7] = SFM + L-lac (100 mM) + glycoform 0.1 μM
[8] = SFM + glycoform 0.1 μM, no additive, 37° C.
[9] = SFM + DPP IV-Ab (50 μg/ml) + glycoform 0.1 μM

Row | Compound | Kd [1, 4] | BINDING +6-AHA [1] | BINDING +L-lactose [1] | Binding to 1-LN cells [1] | Bound (Molecules × 10^5/cell) [1, 5] | [Ca^2+]i Increase (1-LN cells [2]) | [Ca2+]i response after binding of glycoform (1-LN cells [2]) | Active MMP-9 (1-LN cells [3]; [6]) | Active MMP-9 (1-LN cells [3]; [7]) | Active MMP-9 (1-LN cells [3]; [8]) | MMP-9 EXPRESSION Secretion (1-LN cells [3]) | Active MMP-9 (1-LN cells [3]; [9]) | Inhibition of binding of single Pg 2 glycoforms to 1-LN cells ([1]; 125I-labeled glycoform 0.1 μM, increasing concentrations of inhibitor) | Active MMP-9 (1-LN cells [3]; SFM + additive alone, no Pg 2 glycoform) | Decrease in the production of MMP-9 (1-LN cells [3]; cells co-incubated with Pg 2ε, L-lactose 100 mM, anti-DPP IV mAb) | Stimulation of active MMP-9 secreted (1-LN cells [3]; compared to cells with other Pg 2 glycoforms or culture medium, p<0.001) | Kd (nM) [1, 4]
1 | Pg 2α: glycoform of human plasminogen type 2 purified from plasma; 1.3 mol sialic acid/mol Pg | 24.3 ± 1.33 nM | No | Yes | bind to 1-LN cells in a dose-dependent manner with high affinity | 13.0 ± 4.6 Molecules × 10^5/cell | No | did not produce any changes | 0.59 ± 0.17 ng/mL | 0.11 ± 0.02 ng/mL | 0.59 ± 0.16 ng/mL | No | – | – | – | – | – | –
2 | Pg 2γ: glycoform of human plasminogen type 2 purified from plasma; 2.95 mol sialic acid/mol Pg | 10.6 ± 1.43 nM | Yes | No | bind to 1-LN cells in a dose-dependent manner with high affinity | 8.6 ± 1.7 Molecules × 10^5/cell | Yes | elicited a [Ca^2+]i response | 0.63 ± 0.21 ng/mL | 0.15 ± 0.03 ng/mL | 0.60 ± 0.17 ng/mL | No | 0.58 ± 0.12 ng/mL | – | – | – | – | –
3 | Pg 2δ: glycoform of human plasminogen type 2 purified from plasma; 5.77 mol sialic acid/mol Pg | 13.6 ± 1.04 nM | Yes | No | bind to 1-LN cells in a dose-dependent manner with high affinity | 18.1 ± 2.4 Molecules × 10^5/cell | Yes | elicited a [Ca^2+]i response | 0.57 ± 0.14 ng/mL | 0.18 ± 0.04 ng/mL | 0.62 ± 0.18 ng/mL | No | 0.56 ± 0.11 ng/mL | – | – | – | – | –
4 | OC[C@@H]1O[C@H](O[C@@H]2[C@@H](O)[C@H](O)C(O)O[C@H]2CO)[C@@H](O)[C@H](O)[C@@H]1O (stereo partly drawn) [L-lactose, reference compound] | – | – | – | – | – | – | – | – | – | – | – | – | inhibited binding of Pgs 2γ, 2δ, and 2ε | 0.15 ± 0.03 ng/mL | 12 fold | – | –
5 | Pg 2β: glycoform of human plasminogen type 2 purified from plasma; 2.2 mol sialic acid/mol Pg | 7.4 ± 1.86 nM | No | Yes | bind to 1-LN cells in a dose-dependent manner with high affinity | 8.3 ± 1.3 Molecules × 10^5/cell | No | did not produce any changes | 0.5 ± 0.13 ng/mL | 0.17 ± 0.04 ng/mL | 0.59 ± 0.13 ng/mL | No | – | – | – | – | – | –
6 | Pg 2ε: glycoform of human plasminogen type 2 purified from plasma; 5.34 mol sialic acid/mol Pg | 3.8 ± 0.83 nM | Yes | No | bind to 1-LN cells in a dose-dependent manner with high affinity | 9.4 ± 0.8 Molecules × 10^5/cell | Yes | elicited a [Ca^2+]i response | 1.82 ± 0.23 ng/mL | 0.14 ± 0.05 ng/mL | 1.80 ± 0.21 ng/mL | Yes | 0.49 ± 0.14 ng/mL | – | – | – | 3 fold | –
7 | Pg 2φ: glycoform of human plasminogen type 2 purified from plasma; 13.65 mol sialic acid/mol Pg | – | – | – | does not bind; also recorded: No binding | – | – | No response | 0.57 ± 0.11 ng/mL | 0.11 ± 0.02 ng/mL | 0.63 ± 0.14 ng/mL | – | – | – | – | – | – | No Binding
